Measurements: PubChem BioAssay (NCI)
Where “and” joins values, the source holds several entries; their conditions need not be identical. Equal values may be shown once.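 Five concentrations, 48 hours, 96-well plates. GI50 = concentration required for 50% inhibition of growth. TGI: concentration producing complete growth inhibition.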

Assays:
Experiment in all cases: NCI anticancer screen, dose series, 48 h
ACHN renal = system: ACHN renal
MALME-3M melanoma = system: MALME-3M melanoma
PC-3 prostate = system: PC-3 prostate
HCC-2998 colon = system: HCC-2998 colon
NCI-H522 lung = system: NCI-H522 lung
SK-MEL-28 melanoma = system: SK-MEL-28 melanoma
HT29 colon = system: HT29 colon
HL-60(TB) leukemia = system: HL-60(TB) leukemia
SF-295 CNS = system: SF-295 CNS
IGROV1 ovarian = system: IGROV1 ovarian

Row | Structure (SMILES) | GI50 (ACHN renal) | TGI (ACHN renal) | GI50 (MALME-3M melanoma) | TGI (MALME-3M melanoma) | GI50 (PC-3 prostate) | TGI (PC-3 prostate) | GI50 (HCC-2998 colon) | TGI (HCC-2998 colon) | GI50 (NCI-H522 lung) | TGI (NCI-H522 lung) | GI50 (SK-MEL-28 melanoma) | TGI (SK-MEL-28 melanoma) | GI50 (HT29 colon) | TGI (HT29 colon) | GI50 (HL-60(TB) leukemia) | TGI (HL-60(TB) leukemia) | GI50 (SF-295 CNS) | TGI (SF-295 CNS) | GI50 (IGROV1 ovarian) | TGI (IGROV1 ovarian)
1 | [Br][Pb]([c]1ccccc1)([c]1ccccc1)[c]1ccccc1 | 0.175 µM | 0.328 µM | 0.183 µM | 0.39 µM | 0.225 µM | 0.515 µM | 0.191 µM | 0.412 µM | 0.158 µM | 0.352 µM | 0.175 µM | 0.342 µM | 0.239 µM | 0.508 µM | 0.19 µM | 0.498 µM |  |  |  | 
2 | CC[C@H](C)[C@H](NC(=O)C12C3C4C1C1C2C3C41NC)C(=O)N(C)[C@H](C[C@@H](OC(C)=O)c1nc(C(=O)N[C@@H](Cc2ccccc2)C[C@H](C)C(=O)OC)cs1)C(C)C (some centres not stated) | 1.21 µM | > 14.3 µM |  | > 14.3 µM | 0.645 µM | > 14.3 µM | 0.369 µM | > 14.3 µM | 0.0561 µM | 0.967 µM | 0.714 µM | > 14.3 µM | 0.29 µM | > 4.78 µM | 0.0568 µM | 0.346 µM | 0.526 µM | > 9.29 µM | 0.88 µM | > 14.3 µM
3 | CCCCCCCCCCCCCCCCCc1nc(Cl)nc(Cl)c1Cl |  | > 100 µM |  | > 100 µM |  | > 100 µM |  | > 100 µM |  | > 100 µM |  | > 100 µM |  | > 100 µM |  | > 100 µM |  | > 100 µM |  | > 100 µM
4 | COC(=O)[C@@]12OC[C@]34[C@H]([C@@H](O)[C@@H]1O)[C@@]1(C)CC(=O)C(O)=C(C)[C@@H]1C[C@H]3OC(=O)[C@H](OC(=O)/C=C(\C)C(C)C)[C@@H]24 | 0.02 µM | 0.026 µM and 0.0124 µM and 0.0245 µM |  | 0.00498 µM and 0.0263 µM | 0.02 µM | 0.0512 µM and 0.0128 µM and 0.028 µM |  | 0.00342 µM |  | 0.00723 µM |  | 0.0142 µM and < 0.0339 µM and 0.0317 µM |  | 0.0161 µM and 0.0718 µM |  | 0.00583 µM |  | 0.0345 µM and 0.0582 µM |  | 0.0153 µM and 0.059 µM
5 | NNc1c(C(N)=O)c2c(N)ncnc2n1C1OC(CO)C(O)C1O (configuration not stated) | 0.0167 µM | 0.101 µM and 0.499 µM | 0.0205 µM and 0.0363 µM | 0.084 µM and 0.171 µM | 0.0224 µM and 0.0464 µM | 0.22 µM and 0.304 µM | < 0.0176 µM and 0.0165 µM | 0.0462 µM and 0.0691 µM | 0.0328 µM and 0.152 µM |  | 0.138 µM and 0.0291 µM | 0.759 µM and 0.192 µM | < 0.0118 µM |  | 0.0665 µM and < 0.0118 µM | 0.785 µM and 0.125 µM |  | 9.44 µM and 2.91 µM | 0.0276 µM and 0.0476 µM | 1.12 µM and 3.54 µM
6 | CCn1cc(C(=O)O)c(=O)c2cc(F)c(N3CCN(S(=O)(=O)c4ccc(Cl)cc4Cl)CC3)cc21 | 2.62 µM | 7.68 µM | 1.94 µM | 4.17 µM | 2.43 µM | 10.7 µM | 2.29 µM | 5.17 µM | 1.81 µM | 3.73 µM | 3.22 µM | 13.7 µM | 3.63 µM | > 100 µM | 2.22 µM | 5.15 µM |  |  | 2.33 µM | 5.08 µM
7 | Cc1ccc(-c2nc(NCCOCCOCCN)nc(N3CCN(c4ccccn4)CC3)n2)cc1 | 14.7 µM | 32.4 µM | 15.2 µM | 33.7 µM | 15.5 µM | 31 µM | 8.01 µM | 21.9 µM | 18.4 µM | 37 µM | 6.04 µM | 12.4 µM | 8.99 µM | 29.1 µM | 18.7 µM | 40.5 µM | 18.4 µM | 38.6 µM | 19.4 µM | 38 µM
8 | C=CCC(N[C@@H](CO)c1ccccc1)c1ccc2ccccc2n1 (some centres not stated) | > 100 µM | > 100 µM | 88.6 µM | > 100 µM | > 100 µM | > 100 µM | > 100 µM | > 100 µM | 64.6 µM | > 100 µM | > 100 µM | > 100 µM | > 100 µM | > 100 µM | 12.3 µM | 51.5 µM | > 100 µM | > 100 µM | 29.9 µM | > 100 µM
9 | CNC(=O)CCN1CCN(CC/C=C2\c3ccccc3Sc3ccc(Cl)cc32)CC1 | 13.8 µM | 27.1 µM | 2.59 µM | 6.16 µM | 9.07 µM | > 45 µM | 7.94 µM | 24.2 µM | 20 µM | 43.8 µM | 1.76 µM | 3.36 µM | 3.11 µM | 12.4 µM | 4.33 µM | > 41.1 µM | 1.84 µM | 6.47 µM | 15.1 µM | 37.3 µM
10 | N[C@@H]1CCCN(c2c(Br)cnc3[nH]cc(NC(=O)C4CC4)c23)C1 |  |  | 1.27 µM | > 100 µM | 20.3 µM | > 100 µM | 0.399 µM | > 100 µM | 13 µM | > 100 µM | 77.2 µM | > 100 µM | 1.01 µM | > 100 µM | 0.318 µM | 4.51 µM | 0.328 µM | > 100 µM | 0.409 µM | > 100 µM
11 | O=C1/C(=C/c2ccc(Cl)cc2)CCC1CNc1ccc(Cl)cc1 (configuration not stated) |  | 26.9 µM |  | 44.8 µM |  | 45.6 µM |  | 21.6 µM |  | 3.89 µM |  | 35.9 µM |  | 41.1 µM |  | 22.1 µM |  | > 100 µM |  | 27.3 µM
12 | CC1(C)CC(O)CC(C)(C)N1O |  | > 100 µM |  | > 100 µM |  | > 100 µM |  | > 100 µM | > 100 µM | > 100 µM |  | > 100 µM |  | > 100 µM | > 100 µM | > 100 µM |  | > 100 µM |  | > 100 µM
13 | CN(C)CCCN1c2ccccc2Sc2ccc(C(F)(F)F)cc21 | 1.81 µM | 3.85 µM and 28.8 µM and 28.2 µM | 1.56 µM | 3.15 µM and 28.4 µM and 30.1 µM | 1.67 µM | 4 µM and 28.6 µM | 1.46 µM and 10.5 µM and 4.5 µM | 2.89 µM and 23.8 µM and 15.8 µM | 1.39 µM |  | 1.68 µM |  | 1.35 µM | 2.82 µM and 25.3 µM | 1.82 µM |  | 1.65 µM | 3.23 µM and 30.4 µM and 29.1 µM | 1.67 µM | 3.31 µM and 29.3 µM and 30.1 µM
14 | CN1C2C=CC(=O)C1C1C(=O)N(c3ccccc3)C(=O)C12 (configuration not stated) | 6.93 µM | 20.9 µM |  |  | 5.8 µM | 47.3 µM | 13.3 µM | 29.3 µM | 14.3 µM | 79.9 µM | 3.62 µM | 16.7 µM | 3.92 µM | 23.4 µM | 2.19 µM | > 100 µM | 3.06 µM | 36.7 µM | 12.1 µM | 27.9 µM
